From article PMC7002129, “The structure of Photosystem I acclimated to far-red light illuminates an ecologically important acclimation process in photosynthesis” (Science Advances, 2020)
One block for each compound: values may come before it.

Experiments:
[1] = molecular target: T1, FRL-PSI (far-red light-acclimated Photosystem I trimer) (Fischerella thermalis, UniProt G6FME9+G6FMF0); assay: cryo-EM structure ([…] Å); reversed-phase HPLC of extracted pigments; format: binding; conditions: presence shown by HPLC
T1 construct: gene psaA; native trimer from FRL-grown cells, DM-solubilised, sucrose gradients; 36 subunits (12 per monomer), ~1 MDa; with Photosystem I reaction center subunit II; Photosystem I reaction center subunit IV; Photosystem I reaction center subunit VIII; Photosystem I reaction center subunit XII; Photosystem I 4.8K protein

[2] = molecular target: Far-red light-acclimated Photosystem I (FRL-PSI) monomer from Fischerella thermalis PCC 7521 (Fischerella thermalis PCC 7521) (UniProt G6FW50); assay: cryo-EM structure; single-particle cryo-EM of trimeric FRL-PSI isolated from FRL-grown F. thermalis; plunge-frozen in 300 mM tricine pH 8.0, 50 mM NaCl; 178,666 particles, C3 symmetry, global resolution 3.19 Å
[3] = molecular target: T1, FRL-PSI (far-red light-acclimated Photosystem I trimer); assay: reversed-phase HPLC of extracted pigments; format: binding; conditions: native complex; site not assigned (modelled as beta-carotene)

Compound: CC1=C(/C=C/C(C)=C/C=C/C(C)=C/C=C/C=C(C)/C=C/C=C(C)/C=C/C2=C(C)CCCC2(C)C)C(C)(C)CCC1 [β-carotene]
cryo-EM structure (3.19 Å); reversed-phase HPLC of extracted pigments ([1]; not distinguishable from echinenone in the map): all carotenoids are modeled as β-carotene (BCR)

stoichiometry N [2]: 3
Compound: Far-red light-acclimated Photosystem I (FRL-PSI) monomer from Fischerella thermalis PCC 7521 (from UniProt G6FW50 1-81; G6FQU3 1-72) (complex)

Compound: CC1=C(/C=C/C(C)=C/C=C/C(C)=C/C=C/C=C(C)/C=C/C=C(C)/C=C/C2=C(C)C(=O)CCC2(C)C)C(C)(C)CCC1 [echinenone]
reversed-phase HPLC of extracted pigments [3]: both complexes contain a mixture of β-carotene and echinenone

Compound: C=Cc1c(C=O)c2[n]3c1=CC1=NC(=Cc4c(C)c5c([n]4[Mg]3)C(=C3N=C(C=2)C(C)C3CCC(=O)OCC=C(C)CCCC(C)CCCC(C)CCCC(C)C)C(C(=O)OC)C5=O)C(CC)=C1C (stereo not shown) [Chl f]
cryo-EM structure (3.19 Å); reversed-phase HPLC of extracted pigments ([1]; sites A20, A21, B30, B37 modelled as Chl f, assigned indirectly from environment): sites of Chl A20, Chl A21, Chl B30, and Chl B37, accounting for four
